Experimental data: PMC9738796, “Design of Conjugates Based on Sesquiterpene Lactones with Polyalkoxybenzenes by “Click” Chemistry to Create Potential Anticancer Agents” (Molecules, 2022)
Like-named read-outs stand apart in the source and are kept apart here.

Key:
SH-SY5Y cells = experiment: Glycolysis flux assay (Seahorse ECAR); type: cell-based, human; conditions: for glycolytic capacity (ECAR change relative to control): SH-SY5Y (Figure 3c); for decrease in ECAR: 100 µM, SH-SY5Y, kinetic curves (Figure 3d,e)
Description: The ability of compounds to suppress anaerobic glycolysis was studied using the Agilent Seahorse XF96e Analyzer (Seahorse Bioscience, Billerica, MA, USA) by the level of hydrogen proton production in the studied samples on cell lines of neuroblastoma SH-SY5Y [55].
The 30,000 SH-SY5Y cells per well were plated in an XF cell culture microplate (Seahorse Bioscience, Billerica, MA, USA). After plating cells, the microplate was kept overnight in a 37 °C, 5% CO2 incubator. On the following day the medium was aspirated, the cells washed and placed in serum-free, pyruvate-free and glucose-free medium (pH = 7.4). The microplate was kept for 45 min again in a 37° C, 5% CO2 incubator.
When SH-SY5Y cells were analyzed, we followed the procedure described in the Seahorse Glycolysis Stress Test kit. Briefly, initial extracellular acidification rate (ECAR) measurements were taken in the absence of glucose. […] This was followed by an injection of oligomycin from port C so that the final concentration of oligomycin in each well was […]. Lastly, a 25 mM final concentration of 2-deoxyglucose was injected from port D.
Data for each experimental condition derive from values obtained from a minimum of 5 separate wells.

[1] = system: Hek 293 (human embryonic kidneys); experiment: MTT cell viability, normal Hek 293; type: cell-based; conditions: HEK293, 24 h
From the text: (§1) In this study we used human cell culture of tumor origin—SH-SY5Y (neuroblastoma), HeLa (cervical tumor), Hep-2 (larynx carcinoma), A549 (adenocarcinomic human alveolar basal epithelial cells); and normal cell line Hek 293 (human embryonic kidneys)), provided by the Laboratory of Tumor Cell Genetics of the Scientific Research Institute of Carcinogenesis, N.N. Blokhin National Medical Research Center of Oncology, as well as the Institute of Cytology of the Russian Academy of Sciences. While being grown for experiments, cells were cultured at 37 °C in a humidified CO2 atmosphere (5%) in a nutrient medium DMEM (PanEco, Moscow, Russia) and MEM (PanEco, Moscow, Russia), containing fetal bovine serum (10% by volume) (Thermo Fisher Scientific, Paisley, UK), Glutamax (2 mM) (Gibco, Renfrewshire, UK), and penicillin-streptomycin (1% by volume) (PanEco, Moscow, Russia).
(§2) Cell viability was determined by MTT test as described earlier. Cells were seeded in a 96-well plate in the amount of 1 × 10^4 cells/200 µL and cultured at 37 °C in a humidified CO2 atmosphere (5%) in a nutrient medium DMEM (PanEco, Moscow, Russia) and MEM (PanEco, Moscow, Russia). After 24 h of incubation, […] aliquots of test compounds ([…]) dissolved in DMSO were added to the cell cultures, and cells were cultured under the same conditions for 24 h. […] DMSO also was added to the control wells in a volume of 1%.
(§3) After 24 h, […] of MTT (3-(4,5-dimethylthiazol-2-yl)-2,5-diphenyltetrazolium bromide, 5 mg/mL) was added to each well and the plates were additionally incubated for 2 h.
(§4) Using a plate analyzer (Cytation3, BioTek Instruments Inc., Winooski, VT, USA), the optical density was determined at 530 nm. The concentration value causing 50% inhibition of cell population growth (IC50) was determined from dose-dependent curves.

HeLa (cervical tumor) [2] = experiment: MTT cell viability, HeLa; type: cell-based; conditions: Homo sapiens, 24 h
From the text: as §1, §2, §3, §4

Hep-2 (larynx carcinoma) = experiment: MTT cell viability, Hep-2; type: cell-based; conditions: Homo sapiens, 24 h
From the text: as §1, §2, §3, §4

[3] = system: A549 (adenocarcinomic human alveolar basal epithelial cells); experiment: MTT cell viability, A549; type: cell-based; conditions: 24 h
From the text: as §1, §2, §3, §4

SH-SY5Y (neuroblastoma) = experiment: MTT cell viability, SH-SY5Y; type: cell-based; conditions: Homo sapiens, 24 h
From the text: as §1, §2, §3, §4

[4] = system: all cell lines (SH-SY5Y, HeLa, Hep-2, A549, Hek 293); experiment: MTT cytotoxicity, summary over all cell lines; type: cell-based; conditions: Homo sapiens; span over all cell lines
From the text: as §1
Cell viability was determined by MTT test as described earlier. Cells were seeded in a 96-well plate in the amount of 1 × 10^4 cells/200 µL and cultured at 37 °C in a humidified CO2 atmosphere (5%) in a nutrient medium DMEM (PanEco, Moscow, Russia) and MEM (PanEco, Moscow, Russia). […]
Using a plate analyzer (Cytation3, BioTek Instruments Inc., Winooski, VT, USA), the optical density was determined at 530 nm. […]

HeLa (cervical tumor) [5] = conditions: HeLa column; cited from earlier work

| SMILES | IC50 (HeLa (cervical tumor) [2]) [µM] | IC50 (Hep-2 (larynx carcinoma)) [µM] | IC50 (SH-SY5Y (neuroblastoma)) [µM] | glycolytic capacity (ECAR change relative to control) (SH-SY5Y cells; 100 μM) | decrease in ECAR (SH-SY5Y cells) | IC50 [1] [µM] | IC50 [3] [µM] | IC50 [4] [µM] | glycolysis (ECAR change relative to control) (SH-SY5Y cells; 100 μM, SH-SY5Y (Figure 3b)) | IC50 (HeLa (cervical tumor) [5]) [µM] |
| --- | --- | --- | --- | --- | --- | --- | --- | --- | --- | --- |
| C=C1CC[C@H]2[C@H](CNCCn3cc(COCc4cccc(OC)c4OC)nn3)C(=O)O[C@@H]2C2C(=C)CCC12 (stereo partly drawn) [6c, (3R,3aS,9bS)-3-(((2-(4-(((2,3-Dimethoxybenzyl)oxy)methyl)-1H-1,2,3-triazol-1-yl)ethyl)amino)methyl)-6,9-dimethylenedecahydroazuleno [4,5-b]furan-2(9bH)-one] | 82.4 ± 1.14 | > 100 | 94.9 ± 1.08 |  |  | 59.8 ± 1.37 | > 100 |  |  |  |
| C[C@H]1CCC[C@]2(C)C[C@H]3OC(=O)C(CNCCn4cc(COCc5ccc6c(c5)OCO6)nn4)[C@H]3C=C12 (some centres unmarked) [7a] | 39 ± 1.27 | 55.68 ± 0.52 | 33.6 ± 1.27 |  | more than 50% | 38.9 ± 1.23 | 29.3 ± 1.37 | 29 to 55 |  |  |
| COc1ccc(COCc2cn(CCNC[C@H]3C(=O)O[C@@H]4C[C@@]5(C)CCC[C@H](C)C5=C[C@@H]43)nn2)cc1 [7b, (3S,3aR,5S,8aR,9aR)-3-(((2-(4-(((4-Methoxybenzyl)oxy)methyl)-1H-1,2,3-triazol-1-yl)ethyl)amino)methyl)-5,8a-dimethyl-3,3a,6,7,8,8a,9,9a-octahydronaphtho [2,3-b]furan-2(5H)-one] | 55.1 ± 0.94 | 67.16 ± 0.14 | 41.7 ± 1.73 |  |  | 42.3 ± 1.09 | 47.3 ± 1.52 |  |  |  |
| C=C1CC[C@H]2[C@H](CNCCn3cc(COCc4ccc(OC)c(OC)c4)nn3)C(=O)O[C@@H]2C2C(=C)CCC12 (stereo partly drawn) [6d, (3R,3aS,9bS)-3-(((2-(4-(((3,4-Dimethoxybenzyl)oxy)methyl)-1H-1,2,3-triazol-1-yl)ethyl)amino)methyl)-6,9-dimethylenedecahydroazuleno [4,5-b]furan-2(9bH)-one] | > 100 | > 100 | 57.8 ± 1.71 |  |  | 69.47 ± 0.54 | > 100 |  | reaching a minimum |  |
| COc1cccc(COCc2cn(CCNC[C@H]3C(=O)O[C@@H]4C[C@@]5(C)CCC[C@H](C)C5=C[C@@H]43)nn2)c1OC [7c, (3S,3aR,5S,8aR,9aR)-3-(((2-(4-(((2,3-Dimethoxybenzyl)oxy)methyl)-1H-1,2,3-triazol-1-yl)ethyl)amino)methyl)-5,8a-dimethyl-3,3a,6,7,8,8a,9,9a-octahydronaphtho [2,3-b]furan-2(5H)-one] | 46.6 ± 0.81 | 62.6 ± 0.72 | 40 ± 1.32 |  |  | 46.25 ± 0.22 | 53.11 ± 0.25 |  |  |  |
| COc1ccc(COCc2cn(CCNC[C@H]3C(=O)O[C@@H]4C[C@@]5(C)CCC[C@H](C)C5=C[C@@H]43)nn2)cc1OC [7d, (3S,3aR,5S,8aR,9aR)-3-(((2-(4-(((3,4-Dimethoxybenzyl)oxy)methyl)-1H-1,2,3-triazol-1-yl)ethyl)amino)methyl)-5,8a-dimethyl-3,3a,6,7,8,8a,9,9a-octahydronaphtho [2,3-b]furan-2(5H)-one] | 81 ± 3.17 | 91 ± 2.85 | 45.2 ± 1.24 |  |  | 35.39 ± 0.29 | 83.5 ± 1.09 |  |  |  |
| C=C1CCC2C(CNCCn3cc(COCc4ccc5c(c4)OCO5)nn3)C(=O)OC2C2C(=C)CCC12 [6a, (3R,3aS,9bS)-3-(((2-(4-((Benzo[d][1, 3]dioxol-5-ylmethoxy)methyl)-1H-1,2,3-triazol-1-yl)ethyl)amino)methyl)-6,9-dimethylenedecahydroazuleno [4,5-b]furan-2(9bH)-one] | 62.4 ± 0.05 | 88.1 ± 2.66 | 37.35 ± 0.28 | reaching a minimum | more than 50% | 57 ± 1.24 | 85.65 ± 0.38 |  |  |  |
| C=C1C(=O)O[C@@H]2[C@H]3C(C)=CC[C@@]34O[C@@]4(C)CC[C@@H]12 [Arglabin, arglabin, reference compound] |  | 29.9 ± 0.93 | 34 ± 2.48 |  |  | 78 ± 2.05 |  |  |  | 20 |
| C=C1CC[C@H]2C(CNCc3cn(Cc4ccc5c(c4)OCO5)nn3)C(=O)O[C@@H]2C2C(=C)CCC12 (some centres unmarked) [10a] | 18 ± 0.32 | > 100 | 19.3 ± 0.57 |  | more than 50% | 58.04 ± 0.07 | > 100 |  |  |  |
| C=C1CC[C@H]2C(CNCc3cn(Cc4ccc(OC)cc4)nn3)C(=O)O[C@@H]2C2C(=C)CCC12 (some centres unmarked) [10b] | 16.6 ± 0.59 | 26.3 ± 0.38 | 16.1 ± 0.46 |  |  | 56.65 ± 0.05 | 25.2 ± 3.44 |  |  |  |
| C=C1CC[C@H]2[C@H](CNCCn3cc(COCc4ccc(OC)cc4)nn3)C(=O)O[C@@H]2C2C(=C)CCC12 (stereo partly drawn) [6b, (3R,3aS,9bS)-3-(((2-(4-(((4-Methoxybenzyl)oxy)methyl)-1H-1,2,3-triazol-1-yl)ethyl)amino)methyl)-6,9-dimethylenedecahydroazuleno [4,5-b]furan-2(9bH)-one] | 61.52 ± 0.12 | > 100 | 36.3 ± 2.38 |  |  | 56.4 ± 1.03 | > 100 |  |  |  |

The next lines start with results.

| IC50 (HeLa (cervical tumor) [2]) [µM] | IC50 (Hep-2 (larynx carcinoma)) [µM] | IC50 (SH-SY5Y (neuroblastoma)) [µM] | SMILES | glycolytic capacity (ECAR change relative to control) (SH-SY5Y cells; 100 μM) | decrease in ECAR (SH-SY5Y cells) | IC50 [1] [µM] | IC50 [3] [µM] | IC50 [4] [µM] | glycolysis (ECAR change relative to control) (SH-SY5Y cells; 100 μM, SH-SY5Y (Figure 3b)) | IC50 (HeLa (cervical tumor) [5]) [µM] |
| --- | --- | --- | --- | --- | --- | --- | --- | --- | --- | --- |
| 88.86 ± 0.21 | > 100 | 71.8 ± 2 | C[C@H]1CCC[C@]2(C)C[C@H]3OC(=O)C(CNCc4cn(Cc5ccc6c(c5)OCO6)nn4)[C@H]3C=C12 (some centres unmarked) [11a] | reaching a minimum | more than 50% | 61.43 ± 0.1 | 95.9 ± 1.5 |  |  |  |
| 79.59 ± 0.33 | > 100 | 89.5 ± 2.57 | C=C1CC[C@H]2C(CNCc3cn(Cc4cccc(OC)c4OC)nn3)C(=O)O[C@@H]2C2C(=C)CCC12 (some centres unmarked) [10c] |  |  | 66.29 ± 0.08 | > 100 |  |  |  |
| 88.2 ± 1.27 | > 100 | > 100 | COc1cccc(Cn2cc(CNCC3C(=O)O[C@@H]4C[C@@]5(C)CCC[C@H](C)C5=C[C@H]34)nn2)c1OC (some centres unmarked) [11c] |  |  | 67.91 ± 0.65 | > 100 |  |  |  |
| 26.4 ± 2.39 | 82.2 ± 1.15 | 21.83 ± 0.02 | C=C1CC[C@H]2C(CNCc3cn(Cc4ccc(OC)c(OC)c4)nn3)C(=O)O[C@@H]2C2C(=C)CCC12 (some centres unmarked) [10d] |  |  | > 100 | > 100 |  |  |  |
| 89.35 ± 0.4 | > 100 | 56.1 ± 1.06 | COc1ccc(Cn2cc(CNCC3C(=O)O[C@@H]4C[C@@]5(C)CCC[C@H](C)C5=C[C@H]34)nn2)cc1OC (some centres unmarked) [11d] |  |  | 59.6 ± 1.84 | 91.2 ± 1.54 |  |  |  |
| 72.79 ± 0.07 | > 100 | 60.38 ± 0.39 | COc1ccc(Cn2cc(CNCC3C(=O)O[C@@H]4C[C@@]5(C)CCC[C@H](C)C5=C[C@H]34)nn2)cc1 (some centres unmarked) [11b] |  |  | 49.55 ± 0.33 | 70.3 ± 1.17 |  |  |  |
